Test results reported in the NIST ThermoML archive (doi:10.1016/j.jct.2008.02.004).
± gives the expanded uncertainty stated by the source.

Assay: molar enthalpy of vaporization or sublimation
Settings: 298.15 K; Liquid; calvet microcalorimetry

Row | SMILES | molar enthalpy
1 | O=Cc1cccs1 [2-thiophenealdehyde] | 54.9 ± 2.2 kJ/mol
2 | CCc1ccc(C=O)s1 [2-thiophenecarboxaldehyde, 5-ethyl-] | 62.2 ± 2.6 kJ/mol
3 | O=Cc1ccsc1 [3-formylthiophene] | 52.6 ± 2.4 kJ/mol
4 | Cc1ccsc1C=O [3-methyl-2-thiophenecarboxaldehyde] | 57.7 ± 2.6 kJ/mol
5 | Cc1ccc(C=O)s1 [5-methyl-2-thiophenecarbaldehyde] | 56.2 ± 2.4 kJ/mol
